US4894460A (Pierrel S.p.A., priority 1982, dated 1990)
pIC50: −log10 of the molar value.

Tests used:
[1] = test system: Spontaneous Hypertensive Rats (SHR); experiment: Hypotensive activity in spontaneous hypertensive rats (SHR); type: in vivo, Male SHR (Okamoto) rats; conditions: for ED (25%): Rattus norvegicus, po, p.o. in 0.4% carboxymethyl cellulose, systolic arterial pressure, read-out: Hypotensive activity in SHR ED^SABP -25%
Protocol: Hypotensive Activity in Spontaneous Hypertensive Rats (SHR)
Male SHR (Okamoto), of 70-100 days of age were used. The systolic arterial pressure (SABP) was determined by applying to the tail of the animal a pressure transducer with a sleeve connected to a BP-Recorder (W-W Electronic of Basel). The animals were previously warmed to 39° C. for a period of 15-20 minutes in a ventilated chamber.
The rats were previously trained to the registration for 1-2 days prior to the start of the experiment which consisted of a basic registration, the pharmacological treatment and then of subsequent registrations one hour and three hours after the treatment.
All the products were administered orally (p.o.), suspended in 0.4% carboxymethyl cellulose (Methocel); the volume of vehicle was 2 ml per kg.
The compounds of formula (I) were tested at three dose levels and the value of ED-25% was determined.

in vivo = conditions: mouse, iv, mice, i.v. in dimethylsulfoxide, after seven days, Litchfield and Wilcoxon
Protocol: Intravenous Toxicity in Mice
Male CD1 mice from Charles River (Italy), weighing 25 g were used. Compounds were administered intravenously (i.v.), dissolved in dimethylsulfoxide, and the volume of administration was 0.01 ml per 10 g of body weight. The LD50 after seven days, was calculated according to the method of Litchfield and Wilcoxon (Experimental Therapeutics 96, 99 (1949)).

taenia coli = experiment: Antagonistic activity to calcium in the taenia coli of guinea pigs (CaCl2-induced contractions, in vitro); type: cell-based, Hartley albino guinea pigs; conditions: Cavia porcellus, 10 min; guinea pig taenia coli, depolarized, CaCl2 10^-3 M, 10 min contact; from maximum inhibition; read-out: Calcium antagonistic activity in vitro ED50
Protocol: Antagonistic Activity to Calcium in the Taenia Coli of Guinea Pigs
Hartley albino guinea pigs of average weight 450 g were used. The calcium antagonistic activity was determined stimulating the taenia coli, previously depolarized, with a single submaximal concentration of CaCl2 (10^-3 M), at intervals of 20 minutes (according to the method Naunyn Schmied. Arch. Pharmacol. 318, 235 (1982)). The products were left in contact with the preparation for 10 minutes. The ED50 were calculated from the percentage of maximum inhibition.

For COC(=O)C1=C(C)NC(C)=C(C(=O)OCCN2CCN(c3ccccc3Cl)CC2)C1c1cccc([N+](=O)[O-])c1 (stereo not shown) [0248B], the ED (25%) [1] was 13.8 mg/kg, the “Hypotensive activity compared with Nifedipine” value ([1]; p.o., versus Nifedipine) was “superior activity” and the LD50 at 168 h (in vivo) was 24.7 mg/kg. It also gave a pIC50 (taenia coli) of 8.52.
COCCOC(=O)C1=C(C)NC(C)=C(C(=O)OCCN2CCN(c3ccccc3)CC2)C1c1cccc([N+](=O)[O-])c1 (stereo not shown) [0290C, 2-(4-Phenyl)piperazinoethyl-2,6-dimethyl-4-(3-nitrophenyl)-5-(2-methoxy)ethoxycarbonyl-1,4-dihydropyridine-3-carboxylate] gave an ED (25%) [1] of 16.7 mg/kg, an LD50 at 168 h (in vivo) of 7.5 mg/kg and a pIC50 (taenia coli) of 8.52.
